Patent US8487102B2, “Pyrrazolopyridine compounds as dual NK1/NK3 receptor antagonists” (Hoffmann-La Roche Inc., priority 2010, dated 2013)

Experiments:
[1] = target: T1, Recombinant human NK3 (hNK3) receptor (Homo sapiens, UniProt P29371); test: NK3 receptor binding assay, [3H]SR142801 displacement; conditions: hNK3 receptor membranes, [3H]SR142801 0.3 nM
T1 construct: expressed in transfected cells; membrane preparations of the recombinant receptor
T1 sequence (P29371 1-465): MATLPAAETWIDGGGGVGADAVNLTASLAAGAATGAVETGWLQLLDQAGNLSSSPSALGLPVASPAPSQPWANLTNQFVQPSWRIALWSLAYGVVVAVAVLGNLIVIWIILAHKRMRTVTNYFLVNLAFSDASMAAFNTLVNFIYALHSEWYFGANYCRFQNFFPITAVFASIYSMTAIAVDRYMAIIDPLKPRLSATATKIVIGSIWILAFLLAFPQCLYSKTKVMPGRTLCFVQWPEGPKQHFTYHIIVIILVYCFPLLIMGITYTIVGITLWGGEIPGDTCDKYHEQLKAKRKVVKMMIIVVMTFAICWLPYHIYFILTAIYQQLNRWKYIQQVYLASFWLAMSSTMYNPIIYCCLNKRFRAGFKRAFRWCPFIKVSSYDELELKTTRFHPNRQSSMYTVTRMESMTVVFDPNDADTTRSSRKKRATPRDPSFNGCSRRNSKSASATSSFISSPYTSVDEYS
Experimental: Recombinant human NK3 (hNK3) receptor affinity was determined in a 96 well plate assay, using [^3H]SR142801 (final concentration 0.3 nM) to radiolabel the hNK3 receptor in the presence of 10 concentrations of competing compound or buffer. Non specific binding was determined using 10 μM SB222200. Assay buffer consisted of Tris-HCl (50 mM, pH 7.4), BSA (0.1%), MnCl2 (4 mM) and phosphoramidon (1 μM). Membrane preparations of hNK3 receptors (approximately 2.5 μg/well in a 96 well plate) were used to initiate the incubation for 90 min at room temperature. This assay was terminated by rapid filtration under vacuum through GF/C filters, presoaked for 90 min with PEI (0.3%), with 3×0.5 ml washes of ice-cold Tris buffer (50 mM, pH 7.4) containing 0.1% BSA. The radioactivity retained on the filters was measured by scintillation counting. All assays were performed in duplicate in at least two separate experiments.

human NK1 receptor = target: T2, human NK1 receptor (Homo sapiens, UniProt P25103); test: NK1 receptor binding assay, [3H]substance P displacement; conditions: human NK1 receptors in CHO cells, [3H]substance P 0.6 nM
T2 construct: expressed in transfected cells; host or cells: CHO cells (Semliki virus expression system), membrane suspension
T2 sequence (P25103 whole entry): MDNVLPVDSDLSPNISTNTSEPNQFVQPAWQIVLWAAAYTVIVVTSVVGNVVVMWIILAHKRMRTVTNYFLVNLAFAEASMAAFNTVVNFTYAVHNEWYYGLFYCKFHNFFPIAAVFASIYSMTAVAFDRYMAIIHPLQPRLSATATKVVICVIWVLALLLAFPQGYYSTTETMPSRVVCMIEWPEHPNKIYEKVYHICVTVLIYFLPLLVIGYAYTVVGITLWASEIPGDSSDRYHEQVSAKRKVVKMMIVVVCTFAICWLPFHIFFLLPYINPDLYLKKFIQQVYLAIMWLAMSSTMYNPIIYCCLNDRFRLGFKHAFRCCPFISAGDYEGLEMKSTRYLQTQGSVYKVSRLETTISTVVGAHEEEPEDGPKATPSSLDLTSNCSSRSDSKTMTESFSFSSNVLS

| Ki [1] [nM] | Ki (human NK1 receptor) [nM] | Structure (SMILES) |
| --- | --- | --- |
| 532 | 2.5 | CCn1ncc2c(-c3ccccc3)c(N(C)C(=O)C(C)(C)c3cc(C(F)(F)F)cc(C(F)(F)F)c3)cnc21 [Example 10, 2-(3,5-Bis-trifluoromethyl-phenyl)-N-(1-ethyl-4-phenyl-1H-pyrazolo[3,4-b]pyridin-5-yl)-N-methyl-isobutyramide] |
| 77 | 1.3 | Cc1cc(F)ccc1-c1c(N(C)C(=O)C(C)(C)c2cc(C(F)(F)F)cc(C(F)(F)F)c2)cnc2c1cnn2Cc1ccccc1 [Example 11, N-[1-Benzyl-4-(4-fluoro-2-methyl-phenyl)-1H-pyrazolo[3,4-b]pyridin-5-yl]-2-(3,5-bis-trifluoromethyl-phenyl)-N-methyl-isobutyramide] |
| 308 | 34.5 | CCn1ncc2c(-c3ccc(F)cc3C)c(N(C)C(=O)C(C)(C)c3cccc(Cl)c3)cnc21 [Example 29, 2-(3-Chloro-phenyl)-N-[1-ethyl-4-(4-fluoro-2-methyl-phenyl)-1H-pyrazolo[3,4-b]pyridin-5-yl]-N-methyl-isobutyramide] |
| 355 | 4.2 | CCn1ncc2c(-c3cccc(Cl)c3)c(N(C)C(=O)C(C)(C)c3cc(C(F)(F)F)cc(C(F)(F)F)c3)cnc21 [Example 17, 2-(3,5-Bis-trifluoromethyl-phenyl)-N-[4-(3-chloro-phenyl)-1-ethyl-1H-pyrazolo[3,4-b]pyridin-5-yl]-N-methyl-isobutyramide] |
| 28.4 | 1.9 | COCC(=O)n1ncc2c(-c3ccc(F)cc3C)c(N(C)C(=O)C(C)(C)c3cc(C(F)(F)F)cc(C(F)(F)F)c3)cnc21 [Example 32, 2-(3,5-Bis-trifluoromethyl-phenyl)-N-[4-(4-fluoro-2-methyl-phenyl)-1-(2-methoxy-acetyl)-1H-pyrazolo[3,4-b]pyridin-5-yl]-N-methyl-isobutyramide] |
| 979 | 4.9 | CCn1ncc2c(-c3ccc(C#N)cc3)c(N(C)C(=O)C(C)(C)c3cc(C(F)(F)F)cc(C(F)(F)F)c3)cnc21 [Example 23, 2-(3,5-Bis-trifluoromethyl-phenyl)-N-[4-(4-cyano-phenyl)-1-ethyl-1H-pyrazolo[3,4-b]pyridin-5-yl]-N-methyl-isobutyramide] |
| 35.1 | 2.6 | CCn1ncc2c(-c3ccc(F)cc3C)c(N(C)C(=O)C(C)(C)c3cc(Cl)cc(Cl)c3)cnc21 [Example 27, 2-(3,5-Dichloro-phenyl)-N-[1-ethyl-4-(4-fluoro-2-methyl-phenyl)-1H-pyrazolo[3,4-b]pyridin-5-yl]-N-methyl-isobutyramide] |
| 45.3 |  | CCn1ncc2c(-c3cccc(Cl)c3Cl)c(N(C)C(=O)C(C)(C)c3cc(C(F)(F)F)cc(C(F)(F)F)c3)cnc21 [Example 18, 2-(3,5-Bis-trifluoromethyl-phenyl)-N-[4-(2,3-dichloro-phenyl)-1-ethyl-1H-pyrazolo[3,4-b]pyridin-5-yl]-N-methyl-isobutyramide] |
| 160 | 7.9 | CCn1ncc2c(-c3cc(F)ccc3C)c(N(C)C(=O)C(C)(C)c3cc(C(F)(F)F)cc(C(F)(F)F)c3)cnc21 [Example 13, 2-(3,5-Bis-trifluoromethyl-phenyl)-N-[1-ethyl-4-(5-fluoro-2-methyl-phenyl)-1H-pyrazolo[3,4-b]pyridin-5-yl]-N-methyl-isobutyramide] |
| 25.7 | 1.1 | CCn1ncc2c(-c3ccc(F)cc3C)c(N(C)C(=O)C(C)(C)c3cc(C(F)(F)F)cc(C(F)(F)F)c3)cnc21 [Example 2, 2-(3,5-Bis-trifluoromethyl-phenyl)-N-[1-ethyl-4-(4-fluoro-2-methyl-phenyl)-1H-pyrazolo[3,4-b]pyridin-5-yl]-N-methyl-isobutyramide] |
| 94.2 | 4.2 | CCn1ncc2c(-c3ccc(F)cc3C)c(N(C)C(=O)C(C)(C)c3cc(F)cc(C(F)(F)F)c3)cnc21 [Example 26, 2-(3-fluoro-5-trifloromethyl-phenyl)-N-[1-ethyl-4-(4-fluoro-2-methyl-phenyl)-1H-pyrazolo[3,4-b]pyridin-5-yl]-N-methyl-isobutyramide] |
| 86.8 | 0.4 | CCn1ncc2c(-c3ccc(Cl)c(Cl)c3)c(N(C)C(=O)C(C)(C)c3cc(C(F)(F)F)cc(C(F)(F)F)c3)cnc21 [Example 4, 2-(3,5-Bis-trifluoromethyl-phenyl)-N-[4-(3,4-dichloro-phenyl)-1-ethyl-1H-pyrazolo[3,4-b]pyridin-5-yl]-N-methyl-isobutyramide] |
| 208 | 0.7 | CCn1ncc2c(-c3ccccc3OC)c(N(C)C(=O)C(C)(C)c3cc(C(F)(F)F)cc(C(F)(F)F)c3)cnc21 [Example 15, 2-(3,5-Bis-trifluoromethyl-phenyl)-N-[1-ethyl-4-(2-methoxy-phenyl)-1H-pyrazolo[3,4-b]pyridin-5-yl]-N-methyl-isobutyramide] |
| 8 | 1.1 | Cc1cc(F)ccc1-c1c(N(C)C(=O)C(C)(C)c2cc(C(F)(F)F)cc(C(F)(F)F)c2)cnc2c1cnn2CS(C)(=O)=O [Example 38, 2-(3,5-Bis-trifluoromethyl-phenyl)-N-[4-(4-fluoro-2-methyl-phenyl)-1-methanesulfonylmethyl-1H-pyrazolo[3,4-b]pyridin-5-yl]-N-methyl-isobutyramide] |
| 78.5 | 7.5 | Cc1cc(F)ccc1-c1c(N(C)C(=O)C(C)(C)c2cc(C(F)(F)F)cc(C(F)(F)F)c2)cnc2c1cnn2S(=O)(=O)N(C)C [Example 37, 2-(3,5-Bis-trifluoromethyl-phenyl)-N-[1-dimethylsulfamoyl-4-(4-fluoro-2-methyl-phenyl)-1H-pyrazolo[3,4-b]pyridin-5-yl]-N-methyl-isobutyramide] |
| 0.7 | 36 | CCn1ncc2c(-c3ccsc3Cl)c(N(C)C(=O)C(C)(C)c3cc(C(F)(F)F)cc(C(F)(F)F)c3)cnc21 [Example 24, 2-(3,5-Bis-trifluoromethyl-phenyl)-N-[4-(2-chloro-thiophen-3-yl)-1-ethyl-1H-pyrazolo[3,4-b]pyridin-5-yl]-N-methyl-isobutyramide] |
| 13.8 | 0.3 | CCn1ncc2c(-c3ccc(F)cc3Cl)c(N(C)C(=O)C(C)(C)c3cc(C(F)(F)F)cc(C(F)(F)F)c3)cnc21 [Example 19, 2-(3,5-Bis-trifluoromethyl-phenyl)-N-[4-(2-chloro-4-fluoro-phenyl)-1-ethyl-1H-pyrazolo[3,4-b]pyridin-5-yl]-N-methyl-isobutyramide] |
| 200 | 6 | CCn1ncc2c(-c3ccc(F)cc3C)c(NC(=O)C(C)(C)c3cc(C(F)(F)F)cc(C(F)(F)F)c3)cnc21 [Example 5, 2-(3,5-Bis-trifluoromethyl-phenyl)-N-[1-ethyl-4-(4-fluoro-2-methyl-phenyl)-1H-pyrazolo[3,4-b]pyridin-5-yl]-isobutyramide] |
| 9.9 | 1.6 | Cc1cc(F)ccc1-c1c(N(C)C(=O)C(C)(C)c2cc(C(F)(F)F)cc(C(F)(F)F)c2)cnc2c1cnn2C(=O)C1CC1 [Example 33, 2-(3,5-Bis-trifluoromethyl-phenyl)-N-[1-cyclopropanecarbonyl-4-(4-fluoro-2-methyl-phenyl)-1H-pyrazolo[3,4-b]pyridin-5-yl]-N-methyl-isobutyramide] |
| 22.9 | 0.6 | CCn1ncc2c(-c3ccccc3Cl)c(N(C)C(=O)C(C)(C)c3cc(C(F)(F)F)cc(C(F)(F)F)c3)cnc21 [Example 3, 2-(3,5-Bis-trifluoromethyl-phenyl)-N-[4-(2-chloro-phenyl)-1-ethyl-1H-pyrazolo[3,4-b]pyridin-5-yl]-N-methyl-isobutyramide] |
| 39.5 |  | Cc1cc(F)ccc1-c1c(N(C)C(=O)C(C)(C)c2cc(C(F)(F)F)cc(C(F)(F)F)c2)cnc2c1cnn2CC(=O)N1CCCC1 [Example 34, 2-(3,5-Bis-trifluoromethyl-phenyl)-N-[4-(4-fluoro-2-methyl-phenyl)-1-(2-oxo-2-pyrrolidin-1-yl-ethyl)-1H-pyrazolo[3,4-b]pyridin-5-yl]-N-methyl-isobutyramide] |
| 93.9 |  | Cc1cc(F)ccc1-c1c(N(C)C(=O)C(C)(C)c2cc(C(F)(F)F)cc(C(F)(F)F)c2)cnc2c1cnn2CC(=O)N(C)C [Example 35, 2-(3,5-Bis-trifluoromethyl-phenyl)-N-[1-dimethylcarbamoylmethyl-4-(4-fluoro-2-methyl-phenyl)-1H-pyrazolo[3,4-b]pyridin-5-yl]-N-methyl-isobutyramide] |
|  | 522 | CCn1ncc2c(-c3cccnc3C)c(N(C)C(=O)C(C)(C)c3cc(C(F)(F)F)cc(C(F)(F)F)c3)cnc21 [Example 25, 2-(3,5-Bis-trifluoromethyl-phenyl)-N-[1-ethyl-4-(2-methyl-pyridin-3-yl)-1H-pyrazolo[3,4-b]pyridin-5-yl]-N-methyl-isobutyramide] |
